From publication PMC4913266, “Crystal structure of MytiLec, a galactose-binding lectin from the mussel Mytilus galloprovincialis with cytotoxicity against certain cancer cell types” (Scientific Reports, 2016)
Each block holds one molecule with its values, some of them ahead of it.

Assays:
MytiLec [1] = biological target: T1, MytiLec (Mytilus galloprovincialis, UniProt B3EWR1, T39A); experiment: ITC, single-site model; crystal structure […] Å; assay type: binding; conditions: 10 mM HEPES pH 7.4, 100 mM NaCl, 298 K; averaged over three sites per monomer (one type of independent site); crystal shows alpha anomer at all six sites of the dimer
T1 construct: full-length from codon-optimised synthetic gene, initial Thr changed to Ala; N-terminal His6 tag cut by thrombin, product begins GSHMATF; E. coli BL21(DE3) RILP; homodimer 34 kDa
T1 sequence (B3EWR1 39-187 T39A): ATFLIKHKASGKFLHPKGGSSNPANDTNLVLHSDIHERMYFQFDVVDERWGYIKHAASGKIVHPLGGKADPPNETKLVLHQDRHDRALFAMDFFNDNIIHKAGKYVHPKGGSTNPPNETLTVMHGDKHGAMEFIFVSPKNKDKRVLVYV

MytiLec [2] = biological target: T1, MytiLec; experiment: ITC, single-site model; assay type: binding; conditions: 10 mM HEPES pH 7.4, 100 mM NaCl, 298 K; averaged over three sites per monomer (one type of independent site)
[3] = biological target: MytiLec(F93DF94S) (Mytilus galloprovincialis)
[4] = biological target: Recombinant MytiLec (Mytilus galloprovincialis); experiment: AUC; sedimentation velocity, 50 mM potassium phosphate pH 7.4, 0.1 M NaCl, 293 K, 50,000 rpm, absorbance at 280 nm, c(s) converted to c(M); wild-type protein

Kd (MytiLec [1]): 130 µM
Molecule: CC(=O)N[C@H]1C(O)O[C@H](CO)[C@H](O)[C@@H]1O (stereo partly shown) [GalNAc]

Kd (MytiLec [2]): 200 µM
Molecule: OC[C@H]1OC(O)[C@H](O)[C@@H](O)[C@H]1O (stereo partly shown) [galactose]

Molecule: MytiLec(F93DF94S) (natural protein)
haemagglutination activity on rabbit erythrocytes, monomer mutant against the dimer (times less than the dimer) [3]: 10

stoichiometry N [4]: 2
Molecule: Recombinant MytiLec (natural protein)
